These results are taken from US12162872B2, “Cycloalkylurea derivative” (Sumitomo Pharma Co., Ltd., priority 2019, dated 2024).

Each structure is given as a SMILES string.

In the test the target is T1, Human orexin receptor type 2 (Homo sapiens, UniProt O43614).
T1 construct: expressed in transfected cells; host or cells: CHO cells (transient expression)
T1 sequence (O43614 1-444): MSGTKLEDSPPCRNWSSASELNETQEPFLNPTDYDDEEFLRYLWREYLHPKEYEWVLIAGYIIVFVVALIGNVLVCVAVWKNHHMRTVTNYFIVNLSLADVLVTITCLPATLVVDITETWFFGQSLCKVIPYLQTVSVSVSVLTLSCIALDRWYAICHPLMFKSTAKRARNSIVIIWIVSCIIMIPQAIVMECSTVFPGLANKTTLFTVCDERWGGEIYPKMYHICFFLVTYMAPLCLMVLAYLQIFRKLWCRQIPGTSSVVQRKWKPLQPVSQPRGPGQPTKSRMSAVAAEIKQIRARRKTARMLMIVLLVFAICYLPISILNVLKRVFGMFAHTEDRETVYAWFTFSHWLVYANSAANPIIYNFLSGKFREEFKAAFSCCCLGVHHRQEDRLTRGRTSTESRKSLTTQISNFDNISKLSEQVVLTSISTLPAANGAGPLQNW
The experiment in a line: Test 2: Evaluation of agonist activity for orexin receptor type 2 (aequorin luminescence, intracellular calcium mobilization in CHO cells). It is filed as cell-based. Particulars: relative percentage of luminescence for the luminescence (100%) of Orexin A (100 pM), CHO cells transiently expressing human orexin receptor type 2 and apoaequorin, Orexin A Lot. 671009. The procedure: Test 2: Evaluation of Agonist Activity for Orexin Receptor Type 2
Human orexin receptor type 2 and apoaequorin were transiently expressed in CHO cells, and the agonist activity was evaluated based on intracellular calcium mobilization with ligand stimulation. The CHO cells transiently-expressed human orexin receptor type 2 and apoaequorin were seeded on a 384-well plate by 2,000 cells/well, and then incubated for 16-22 hours. After the plate was returned to room temperature, Coelenterazine hcp (final concentration: 1 μM) was added to the plate, and the plate was allowed to stand at room temperature for 2 hours. And then, Orexin A (PEPTIDE INSTITUTE, INC., Lot. 671009) or each test compound was added to the plate, and the luminescence of the cells was measured with FDSS7000 (Hamamatsu Photonics K.K.), wherein Orexin A and each test compound were dissolved in DMSO (final concentration: 0.1%), and diluted with a buffer (Hanks, 20 mM HEPES, 0.1% BSA). The agonist activity of each test compound for orexin receptor type 2 was calculated as relative percentage of luminescence for the luminescence (100%) of Orexin A (100 pM).

For the molecule `CC1(CN2CC[C@H](O[C@H]3CCCC(F)(F)[C@@H]3NC(=O)N3CCC(C)(c4noc(C5CC5)n4)CC3)C2)CC1` [Example 126, 4-(5-cyclopropyl-1,2,4-oxadiazol-3-yl)-N-[(1R,6S)-2,2-difluoro-6-({(3S)-1-[(1-methylcyclopropyl)methyl]pyrrolidin-3-yl}oxy)cyclohexyl]-4-methylpiperidine-1-carboxamide], the “agonist activity (%)” value was 394%. Still for that read-out and setting: with `CC1(c2noc([C@@H]3C[C@@H]3F)n2)CCN(C(=O)N[C@@H]2[C@@H](O[C@H]3CCN(CC4(F)CC4)C3)CCCC2(F)F)CC1` [Example 133, N-[(1R,6S)-2,2-difluoro-6-({(3S)-1-[(1-fluorocyclopropyl)methyl]pyrrolidin-3-yl}oxy)cyclohexyl]-4-{5-[(1S,2S)-2-fluorocyclopropyl]-1,2,4-oxadiazol-3-yl}-4-methylpiperidine-1-carboxamide] the figure was 506%; with `CC(C)N1CCN([C@@H]2CCCC(F)(F)[C@H]2NC(=O)N2CCC(C)(c3noc([C@H]4C[C@H]4F)n3)CC2)CC1` [Example 82, N-{(1S,6R)-2,2-difluoro-6-[4-(propan-2-yl)piperazin-1-yl]cyclohexyl}-4-{5-[(1R,2R)-2-fluorocyclopropyl]-1,2,4-oxadiazol-3-yl}-4-methylpiperidine-1-carboxamide], 69%. Same read-out and setting: with `CC(C)N1CCN([C@H]2CCCC(F)(F)[C@@H]2NC(=O)N2CCC(C)(c3noc([C@@H]4C[C@@H]4F)n3)CC2)[C@@H](C)C1` [Example 110, N-{(1R,6S)-2,2-difluoro-6-[(2S)-2-methyl-4-(propan-2-yl)piperazin-1-yl]cyclohexyl}-4-{5-[(1S,2S)-2-fluorocyclopropyl]-1,2,4-oxadiazol-3-yl}-4-methylpiperidine-1-carboxamide] the figure was 380%; with `CN(CC1(F)CC1)C1CCN([C@H]2CCCC(F)(F)[C@@H]2NC(=O)N2CCC(C)(c3noc([C@@H]4C[C@@H]4F)n3)CC2)CC1` [Example 136, N-[(1R,6S)-2,2-difluoro-6-(4-{[(1-fluorocyclopropyl)methyl](methyl)amino}piperidin-1-yl)cyclohexyl]-4-{5-[(1S,2S)-2-fluorocyclopropyl]-1,2,4-oxadiazol-3-yl}-4-methylpiperidine-1-carboxamide], 346%; with `CC(C)(F)CN1CC[C@H](O[C@H]2CCCC(F)(F)[C@@H]2NC(=O)N2CCC(C)(c3noc([C@@H]4C[C@@H]4F)n3)CC2)C1` [Example 143, N-[(1R,6S)-2,2-difluoro-6-{[(3S)-1-(2-fluoro-2-methylpropyl)pyrrolidin-3-yl]oxy}cyclohexyl]-4-{5-[(1S,2S)-2-fluorocyclopropyl]-1,2,4-oxadiazol-3-yl}-4-methylpiperidine-1-carboxamide], 444%. For the molecule `CC(C)N1C[C@H]2CC[C@@H](C1)[C@H]2O[C@H]1CCCC(F)(F)[C@@H]1NC(=O)N1CCC(C)(c2noc([C@@H]3C[C@@H]3F)n2)CC1` [Example 100, N-[(1R,6S)-2,2-difluoro-6-{[(1R,5S,8R)-3-(propan-2-yl)-3-azabicyclo[3.2.1]octan-8-yl]oxy}cyclohexyl]-4-{5-[(1S,2S)-2-fluorocyclopropyl]-1,2,4-oxadiazol-3-yl}-4-methylpiperidine-1-carboxamide], the “agonist activity (%)” value is given as 340%. On the same count and under the same terms, with `CN(CC1CC1)[C@H]1CCN([C@H]2CCCC(F)(F)[C@@H]2NC(=O)N2CCC(C)(c3noc([C@@H]4C[C@@H]4F)n3)CC2)C1` [Example 137, N-[(1R,6S)-6-{(3S)-3-[(cyclopropylmethyl)(methyl)amino]pyrrolidin-1-yl}-2,2-difluorocyclohexyl]-4-{5-[(1S,2S)-2-fluorocyclopropyl]-1,2,4-oxadiazol-3-yl}-4-methylpiperidine-1-carboxamide] the figure was 376%.

`CN(CC1CC1)C1C[C@H]2CC[C@@H](C1)N2[C@H]1CCCC(F)(F)[C@@H]1NC(=O)N1CCC(C)(c2noc([C@@H]3C[C@@H]3F)n2)CC1` (stereo partly drawn) [Example 142, N-[(1R,6S)-6-{(1R,3S,5S)-3-[(cyclopropylmethyl)(methyl)amino]-8-azabicyclo[3.2.1]octan-8-yl}-2,2-difluorocyclohexyl]-4-{5-[(1S,2S)-2-fluorocyclopropyl]-1,2,4-oxadiazol-3-yl}-4-methylpiperidine-1-carboxamide]: where the note is “0.0001 µM”, the “agonist activity (%)” value turned out to be 407%. With `CCN(C)C1CCN([C@H]2CCCC(F)(F)[C@@H]2NC(=O)N2CCC(C)(c3noc([C@@H]4C[C@@H]4F)n3)CC2)CC1` [Example 160, N-[(1R,6S)-6-{4-[ethyl(methyl)amino]piperidin-1-yl}-2,2-difluorocyclohexyl]-4-{5-[(1S,2S)-2-fluorocyclopropyl]-1,2,4-oxadiazol-3-yl}-4-methylpiperidine-1-carboxamide], the “agonist activity (%)” value stood at 410%.

As to `CC(C)N1CC[C@H](O[C@H]2CCCC(F)(F)[C@@H]2NC(=O)N2CCC(C)(c3noc(C4CCC4)n3)CC2)C1` [Example 102, 4-(5-cyclobutyl-1,2,4-oxadiazol-3-yl)-N-[(1R,6S)-2,2-difluoro-6-{[(3S)-1-(propan-2-yl)pyrrolidin-3-yl]oxy}cyclohexyl]-4-methylpiperidine-1-carboxamide], the “agonist activity (%)” value was 374%. Same read-out and setting: with `CCC1(c2noc([C@@H]3C[C@@H]3F)n2)CCN(C(=O)N[C@@H]2[C@@H](O[C@H]3CCN(C(C)C)C3)CCCC2(F)F)CC1` [Example 103, N-[(1R,6S)-2,2-difluoro-6-{[(3S)-1-(propan-2-yl)pyrrolidin-3-yl]oxy}cyclohexyl]-4-ethyl-4-{5-[(1S,2S)-2-fluorocyclopropyl]-1,2,4-oxadiazol-3-yl}piperidine-1-carboxamide] the figure was 369%. `CC(C)N1CCN([C@H]2CCC[C@@H](F)[C@@H]2NC(=O)N2CCC(C)(c3noc(C4CC4)n3)CC2)CC1` (racemic) [Example 139, rac-4-(5-cyclopropyl-1,2,4-oxadiazol-3-yl)-N-{(1R,2R,6S)-2-fluoro-6-[4-(propan-2-yl)piperazin-1-yl]cyclohexyl}-4-methylpiperidine-1-carboxamide]: the “agonist activity (%)” value is 351%. In the case of `CC1(c2noc([C@@H]3C[C@@H]3F)n2)CCN(C(=O)N[C@@H]2[C@@H](O[C@H]3CCN(CC4CC4)C3)CCCC2(F)F)CC1` [Example 118, N-[(1R,6S)-6-{[(3S)-1-(cyclopropylmethyl)pyrrolidin-3-yl]oxy}-2,2-difluorocyclohexyl]-4-{5-[(1S,2S)-2-fluorocyclopropyl]-1,2,4-oxadiazol-3-yl}-4-methylpiperidine-1-carboxamide], the “agonist activity (%)” value came out at 524%.

For the molecule `CC(C)c1nsc(O[C@H]2CCCC(F)(F)[C@@H]2NC(=O)N2CCC(C)(c3noc([C@@H]4C[C@@H]4F)n3)CC2)n1` [Example 87, N-[(1R,6S)-2,2-difluoro-6-{[3-(propan-2-yl)-1,2,4-thiadiazol-5-yl]oxy}cyclohexyl]-4-{5-[(1S,2S)-2-fluorocyclopropyl]-1,2,4-oxadiazol-3-yl}-4-methylpiperidine-1-carboxamide], the “agonist activity (%)” value is 226%.

Regarding `CC(C)(C)CN1CC[C@H](O[C@H]2CCCC(F)(F)[C@@H]2NC(=O)N2CCC(C)(c3noc(C4CC4)n3)CC2)C1` [Example 119, 4-(5-cyclopropyl-1,2,4-oxadiazol-3-yl)-N-[(1R,6S)-6-{[(3S)-1-(2,2-dimethylpropyl)pyrrolidin-3-yl]oxy}-2,2-difluorocyclohexyl]-4-methylpiperidine-1-carboxamide], the “agonist activity (%)” value is 378%.
